Results reported in patent US20030086947A1, “Vaccine against papillomatous digital dermatitis (PDD)” (TOWNSEND AND TOWNSEND AND CREW, priority 1997, published 2003).

Experiments:
[1] = tested on: lesions of papillomatous digital dermatitis (PDD); assay: Effect of various treatments on lesions of papillomatous digital dermatitis in Holstein cows; assay type: in vivo; details: for No. of cows assessed: Responded / No. of lesions assessed: Responded: complete therapeutic response, assessed at post-treatment days 7, 14 and 21, herds 5 to 7; for Mean therapeutic response time: determined by desiccation and keratinization of surfaces and absence of pain
Description: (§1) The effect of various treatments was assessed on a total of 72 lesions of PDD in 35 cows in […] (herds 4 and 5-7). Treatments consisted of procaine penicillin G (G. C. Hanford Manufacturing Co., Syracuse, N.Y.), 18,000 units/kg IM BID for 3 days (7 cows); ceftiofur sodium (Naxcel®, The Upjohn Co., Kalamazoo, Mich.), 2 mg/kg daily for 3 days (14 cows); oxytetracycline (Terramycin—343®Pfizer Animal Health, N.Y.), single topical application of approximately 5 g of soluble powder bandaged directly onto a clean lesion for 7 days (3 cows); formadelhyde (Fisher Scientific, Pittsburg, Pa.), 39% v/v, single topical application (5 cows); hydrochloric acid (Fisher Scientific, Pittsburg, Pa.), 36% v/v, single topical application (4 cows); surgical excision (4 cows); and chlorodifluoromethane, dimethylether (Brand Spray, Stockman Products Ltd., Castledown, Isle of Man, UK), 2 minutes of topical cryogenic spray until lesion and margin were frozen solid and white (1 cow). Two cows which received no, treatment served as untreated controls. Therapeutic response was assessed at post treatment days: 7 (4 cows), 7 and 14 (23 cows) and 7, 14 and 21 (7 cows). Therapeutic response was considered complete if there was entire transformation of moist, red, raw, prone-to-bleed, painful surfaces to dry, dark brown, firm, rubbery, keratinacious, non-painful surfaces adherent to underlying pink healthy-appearing skin. […] Another 6 lesions of PDD in 4 cows in herd 4 were reexamined 5 weeks after total surgical excision.

[2] = tested on: lesions of papillomatous digital dermatitis (PDD); assay: Prevalence of recurrent and new PDD lesions at follow-up examination of treated cows; assay type: in vivo, Holstein cows; details: for Recurrence and new-lesion development (in words): 7-12 weeks after complete response; for New: Cows n / New: Lesions n: lesion at a previously non-affected site; for New: Cows n / New: Lesions n / Recurrent: Cows n / Recurrent: Lesions n: cows that completely responded 7-12 weeks before follow-up; for Recurrent: Cows n / Recurrent: Lesions n: recurrence at a previously responsive affected site
Description: as §1

Compound	No. of cows assessed: Responded [1]	No. of lesions assessed: Responded [1]	Mean therapeutic response time [1] [days]	Incomplete responses, number of cows ([1]; in vivo) [cows]	Recurrence and new-lesion development (in words) [2]	New: Cows n [2]	New: Lesions n [2]	Recurrent: Cows n [2]	Recurrent: Lesions n [2]	Therapeutic response of PDD lesions (in words) ([1]; in vivo)
CO/N=C(\C(=O)N[C@@H]1C(=O)N2C(C(=O)O)=C(CSC(=O)c3ccco3)CS[C@H]12)c1csc(N)n1 [Ceftiofur IM, ceftiofur sodium]	13	41	11.1 ± 4.5	2	Recurrence and new-lesion-development were observed	2	2	4^|	6	–
C=O [Formaldehyde (39%), formadelhyde]	5	8	7	–	–	0	0	0^	0	–
Cl [Hydrochloric acid (35%), hydrochloric acid]	2	3	7	2	New lesions occurred	2	3	0^	0	persistence of small painful deep ulcers
CN(C)[C@@H]1C(O)=C(C(N)=O)C(=O)[C@@]2(O)C(O)=C3C(=O)c4c(O)cccc4[C@@](C)(O)[C@H]3[C@H](O)[C@@H]12 [Oxytetracycline, topical, oxytetracycline]	3	4	7	–	–	–	–	–	–	–
procaine penicillin G [Penicillin G procaine IM]	7	9	8.2 ± 2.5	–	Recurrence and new-lesion-development were observed	2	4	1^|	1	–
